Reference: patent publication US20230085307A1, “PYRIDAZINONE COMPOUND AND HERBICIDE” (NISSAN CHEMICAL CORPORATION, priority 2019, published 2023)

Assays:
southern crabgrass [1] = test: Test Example 5: herbicidal effect by foliage application, plastic box (Table 20, symbol F); format: in vivo, southern crabgrass (Digitaria ciliaris); settings: foliage application after 14-day growth, evaluated three weeks after application; for herbicidal effect on F: southern crabgrass (evaluation grade 0-5): 320 g/ha; for Herbicidal effect by foliage application, F: southern crabgrass: amount of applied herbicide 320 g/ha
Method in brief: (§1)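 Foliar spray test: emulsion formulation diluted in water to a set application rate, sprayed onto 14-day-old plants raised in diluvial soil at 25° C to 30° C under glass. Both herbicidal effect and crop effect rated visually three weeks later.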

rice flat sedge = test: Test Example 3: herbicidal effect by foliage application, Wagner pot (Table 18, symbol E); format: in vivo, rice flat sedge (Cyperus iria); settings: 320 g/ha
Method in brief: (§2)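 Plants were sown in alluvial soil held under 0.1–0.5 cm standing water and grown 14 days in a greenhouse at 25–30 °C. An emulsifiable formulation, water-diluted to the set dose, was then sprayed onto the foliage, and effects were scored three weeks later using previously defined criteria.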

persian speedwell = test: Test Example 4: herbicidal effect by soil treatment (Table 19, symbol R); format: in vivo, Persian speedwell (Veronica persica); settings: amount of applied herbicide 320 g/ha
Method in brief: (§3)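 Herbicidal effect was rated 3 weeks after treatment, using the scoring criteria of an earlier test. The compound, formulated as an emulsion and diluted in water to a set herbicide amount, had been sprayed uniformly on soil over freshly sown seeds. Growth took place in a greenhouse at 25° C. to 30° C.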

windgrass [2] = test: Test Example 4: herbicidal effect by soil treatment (Table 19, symbol L); format: in vivo, windgrass (Apera spica-venti); settings: amount of applied herbicide 320 g/ha
Method in brief: as §3

oval-leafed pondweed [3] = test: Test Example 2: herbicidal activity, application during weed generation under submerged conditions (Table 17, symbol C); format: in vivo, oval-leafed pondweed (Monochoria vaginalis); settings: AAH 320 g/ha; application during weed generation, submerged conditions
Method in brief: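 Wagner pot, alluvial soil, 4 cm flood; mixed sowing of all species; greenhouse 25° C.–30° C. Emulsifiable formulation, water-diluted to predetermined dose, applied to paddy water at 1–2 leaf stage. Effect rated at 3 wk using the earlier test's scoring criteria.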

wild oat = test: Test Example 5: herbicidal effect by foliage application, plastic box (Table 20, symbol I); format: in vivo, wild oat (Avena fatua); settings: foliage application after 14-day growth, evaluated three weeks after application; for herbicidal effect on I: wild oat (evaluation grade 0-5): 320 g/ha; for Herbicidal effect by foliage application, I: wild oat: amount of applied herbicide 320 g/ha
Method in brief: as §1

southern crabgrass [4] = test: Test Example 4: herbicidal effect by soil treatment (Table 19, symbol F); format: in vivo, southern crabgrass (Digitaria ciliaris); settings: amount of applied herbicide 320 g/ha
Method in brief: as §3

Chinese sprangletop = test: Test Example 3: herbicidal effect by foliage application, Wagner pot (Table 18, symbol D); format: in vivo, chinese sprangletop (Leptochloa chinensis); settings: 320 g/ha
Method in brief: as §2

lambsquarters = test: Test Example 5: herbicidal effect by foliage application, plastic box (Table 20, symbol O); format: in vivo, lambsquarters (Chenopodium album); settings: foliage application after 14-day growth, evaluated three weeks after application; for herbicidal effect on O: lambsquarters (evaluation grade 0-5): 320 g/ha; for Herbicidal effect by foliage application, O: lambsquarters: amount of applied herbicide 320 g/ha
Method in brief: as §1

windgrass [5] = test: Test Example 5: herbicidal effect by foliage application, plastic box (Table 20, symbol L); format: in vivo, windgrass (Apera spica-venti); settings: foliage application after 14-day growth, evaluated three weeks after application; for herbicidal effect on L: windgrass (evaluation grade 0-5): 320 g/ha; for Herbicidal effect by foliage application, L: windgrass: amount of applied herbicide 320 g/ha
Method in brief: as §1

Japanese bulrush = test: Test Example 1: herbicidal activity, application before weed generation under submerged conditions (Table 16, symbol B); format: in vivo, Japanese bulrush (Schoenoplectus juncoides); settings: amount of applied herbicide 320 g/ha
Method in brief: (§4)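 Emulsion formulation, water-diluted to set dose, was put onto the flooded surface (4 cm depth, alluvial soil) the same day weeds were sown and 2.5-leaf rice transplanted. After 3 weeks at 25-30 °C under glass, each species was rated 0 (≤5% kill) to 5 (≥90% kill).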

redroot pigweed = test: Test Example 4: herbicidal effect by soil treatment (Table 19, symbol N); format: in vivo, redroot pigweed (Amaranthus retroflexus); settings: amount of applied herbicide 320 g/ha
Method in brief: as §3

green foxtail = test: Test Example 5: herbicidal effect by foliage application, plastic box (Table 20, symbol G); format: in vivo, green foxtail (Setaria viridis); settings: foliage application after 14-day growth, evaluated three weeks after application; for herbicidal effect on G: green foxtail (evaluation grade 0-5): 320 g/ha; for Herbicidal effect by foliage application, G: green foxtail: amount of applied herbicide 320 g/ha
Method in brief: as §1

barnyard grass = test: Test Example 5: herbicidal effect by foliage application, plastic box (Table 20, symbol H); format: in vivo, barnyard grass (Echinochloa crus-galli); settings: foliage application after 14-day growth, evaluated three weeks after application; for herbicidal effect on H: barnyard grass (evaluation grade 0-5): 320 g/ha; for Herbicidal effect by foliage application, H: barnyard grass: amount of applied herbicide 320 g/ha
Method in brief: as §1

oval-leafed pondweed [6] = test: Test Example 1: herbicidal activity, application before weed generation under submerged conditions (Table 16, symbol C); format: in vivo, oval-leafed pondweed (Monochoria vaginalis); settings: amount of applied herbicide 320 g/ha
Method in brief: as §4

late watergrass = test: Test Example 1: herbicidal activity, application before weed generation under submerged conditions (Table 16, symbol A); format: in vivo, late watergrass (Echinochloa oryzicola); settings: amount of applied herbicide 320 g/ha
Method in brief: as §4

Row | SMILES | herbicidal effect on F: southern crabgrass (evaluation grade 0-5) (southern crabgrass [1]) | herbicidal effect on rice flat sedge (E) (rice flat sedge) | Herbicidal effect by soil treatment, R: persian speedwell (persian speedwell) | Herbicidal effect by soil treatment, L: windgrass (windgrass [2]) | herbicidal effect rating, C: oval-leafed pondweed (oval-leafed pondweed [3]) | herbicidal effect on I: wild oat (evaluation grade 0-5) (wild oat) | Herbicidal effect by soil treatment, F: southern crabgrass (southern crabgrass [4]) | herbicidal effect on Chinese sprangletop (D) (Chinese sprangletop) | herbicidal effect on O: lambsquarters (evaluation grade 0-5) (lambsquarters) | herbicidal effect on L: windgrass (evaluation grade 0-5) (windgrass [5]) | Herbicidal effect, B: Japanese bulrush (Japanese bulrush) | Herbicidal effect by soil treatment, N: redroot pigweed (redroot pigweed) | Herbicidal effect, C: oval-leafed pondweed (oval-leafed pondweed [6]) | Herbicidal effect, A: late watergrass (late watergrass) | Herbicidal effect by foliage application, F: southern crabgrass (southern crabgrass [1]) | Herbicidal effect by foliage application, I: wild oat (wild oat) | Herbicidal effect by foliage application, O: lambsquarters (lambsquarters) | Herbicidal effect by foliage application, L: windgrass (windgrass [5]) | Herbicidal effect by foliage application, G: green foxtail (green foxtail) | Herbicidal effect by foliage application, H: barnyard grass (barnyard grass) | other results
1 | CCCOc1ccc(-c2sc3c(Cl)cccc3c2-c2c(OC(=O)CCC)c(C)nn(C)c2=O)cc1 [4-028] | 0 (Herbicidal rate of 5% or less (almost no effect)) | 5 (Herbicidal rate of 90% or more (almost completely withered)) | 1 (Herbicidal rate of 5% or more and less than 20%) | 0 (Herbicidal rate of 5% or less (almost no effect)) | 0 (Herbicidal rate of 5% or less (almost no effect)) | 0 (Herbicidal rate of 5% or less (almost no effect)) | 0 (Herbicidal rate of 5% or less (almost no effect)) | 3 (Herbicidal rate of 40% or more and less than 70%) | 5 (Herbicidal rate of 90% or more (almost completely withered)) | 0 (Herbicidal rate of 5% or less (almost no effect)) | 3 (Herbicidal rate of 40% or more and less than 70%) | 4 (Herbicidal rate of 70% or more and less than 90%) | 0 (Herbicidal rate of 5% or less (almost no effect)) | 3 (Herbicidal rate of 40% or more and less than 70%) |  |  |  |  |  |  | herbicidal effect on G: green foxtail (evaluation grade 0-5) (green foxtail): 3 (Herbicidal rate of 40% or more and less than 70%); herbicidal effect on H: barnyard grass (evaluation grade 0-5) (barnyard grass): 5 (Herbicidal rate of 90% or more (almost completely withered))
2 | CCCC(=O)Oc1c(C)nn(C)c(=O)c1-c1c(-c2ccc(SC)cc2)sc2c(F)cccc12 [4-051] | 0 (Herbicidal rate of 5% or less (almost no effect)) | 3 (Herbicidal rate of 40% or more and less than 70%) | 5 (Herbicidal rate of 90% or more (almost completely withered)) | 0 (Herbicidal rate of 5% or less (almost no effect)) | 0 (Herbicidal rate of 5% or less (almost no effect)) | 4 (Herbicidal rate of 70% or more and less than 90%) | 0 (Herbicidal rate of 5% or less (almost no effect)) | 3 (Herbicidal rate of 40% or more and less than 70%) | 5 (Herbicidal rate of 90% or more (almost completely withered)) | 5 (Herbicidal rate of 90% or more (almost completely withered)) | 3 (Herbicidal rate of 40% or more and less than 70%) | 5 (Herbicidal rate of 90% or more (almost completely withered)) | 0 (Herbicidal rate of 5% or less (almost no effect)) | 4 (Herbicidal rate of 70% or more and less than 90%) |  |  |  |  |  |  | herbicidal effect on G: green foxtail (evaluation grade 0-5) (green foxtail): 3 (Herbicidal rate of 40% or more and less than 70%); herbicidal effect on H: barnyard grass (evaluation grade 0-5) (barnyard grass): 4 (Herbicidal rate of 70% or more and less than 90%)
3 | Cc1nn(C)c(=O)c(-c2c(-c3ccccc3OC(F)(F)F)sc3c(Cl)cccc23)c1O [4-076] |  | 3 (Herbicidal rate of 40% or more and less than 70%) | 3 (Herbicidal rate of 40% or more and less than 70%) | 0 (Herbicidal rate of 5% or less (almost no effect)) | 0 (Herbicidal rate of 5% or less (almost no effect)) |  | 0 (Herbicidal rate of 5% or less (almost no effect)) | 3 (Herbicidal rate of 40% or more and less than 70%) |  |  | 3 (Herbicidal rate of 40% or more and less than 70%) | 4 (Herbicidal rate of 70% or more and less than 90%) | 0 (Herbicidal rate of 5% or less (almost no effect)) | 0 (Herbicidal rate of 5% or less (almost no effect)) | 1 (Herbicidal rate of 5% or more and less than 20%) | 0 (Herbicidal rate of 5% or less (almost no effect)) | 4 (Herbicidal rate of 70% or more and less than 90%) | 0 (Herbicidal rate of 5% or less (almost no effect)) | 4 (Herbicidal rate of 70% or more and less than 90%) | 3 (Herbicidal rate of 40% or more and less than 70%) | 
4 | COc1ccc(-c2sc3c(C)cccc3c2-c2c(O)c(C)nn(C)c2=O)cc1 [4-110] |  | 5 (Herbicidal rate of 90% or more (almost completely withered)) | 4 (Herbicidal rate of 70% or more and less than 90%) | 0 (Herbicidal rate of 5% or less (almost no effect)) | 5 (Herbicidal rate of 90% or more (almost completely withered)) |  | 0 (Herbicidal rate of 5% or less (almost no effect)) | 0 (Herbicidal rate of 5% or less (almost no effect)) |  |  | 5 (Herbicidal rate of 90% or more (almost completely withered)) | 5 (Herbicidal rate of 90% or more (almost completely withered)) | 4 (Herbicidal rate of 70% or more and less than 90%) | 5 (Herbicidal rate of 90% or more (almost completely withered)) | 1 (Herbicidal rate of 5% or more and less than 20%) | 0 (Herbicidal rate of 5% or less (almost no effect)) | 5 (Herbicidal rate of 90% or more (almost completely withered)) | 4 (Herbicidal rate of 70% or more and less than 90%) | 3 (Herbicidal rate of 40% or more and less than 70%) | 2 (Herbicidal rate of 20% or more and less than 40%) | 
5 | CCSc1ccc(-c2sc3c(C)cccc3c2-c2c(O)c(C)nn(C)c2=O)cc1 [4-124] |  | 5 (Herbicidal rate of 90% or more (almost completely withered)) | 4 (Herbicidal rate of 70% or more and less than 90%) | 0 (Herbicidal rate of 5% or less (almost no effect)) | 0 (Herbicidal rate of 5% or less (almost no effect)) |  | 4 (Herbicidal rate of 70% or more and less than 90%) | 3 (Herbicidal rate of 40% or more and less than 70%) |  |  | 3 (Herbicidal rate of 40% or more and less than 70%) | 5 (Herbicidal rate of 90% or more (almost completely withered)) | 2 (Herbicidal rate of 20% or more and less than 40%) | 4 (Herbicidal rate of 70% or more and less than 90%) | 3 (Herbicidal rate of 40% or more and less than 70%) | 4 (Herbicidal rate of 70% or more and less than 90%) | 5 (Herbicidal rate of 90% or more (almost completely withered)) | 5 (Herbicidal rate of 90% or more (almost completely withered)) | 5 (Herbicidal rate of 90% or more (almost completely withered)) | 5 (Herbicidal rate of 90% or more (almost completely withered)) | 
